From patent publication US9765105B2, “Macrolide compound” (Pulike Biological Engineering, Inc., priority 2013, dated 2017)

Key:
Assay in all cases: in vitro susceptibility, MIC by mini broth dilution
Type in all cases: cell-based
[1] = system: Actinobacillus pleuropneumoniae CVCC262; settings: strain CVCC262
Procedure, shortened: (§1)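 MICs determined by mini broth dilution per NCCLS (now CLSI) standards. Strains revived from −20° C, subcultured twice on solid medium at 35° C for 20 h; compounds two-fold serially diluted in DMSO over 11 gradients, duplicate rows, bacterial suspension diluted 1:200 in liquid medium.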

Haemophilus parasuis = system: Haemophilus parasuis
Procedure, shortened: as §1

[2] = system: Streptococcus equines CVCC556; settings: strain CVCC556
Procedure, shortened: as §1

[3] = system: Pasteurella multocida CVCC399; settings: strain CVCC399
Procedure, shortened: as §1

[4] = system: Staphylococcus aureus CVCC26003; settings: strain CVCC26003
Procedure, shortened: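 MICs were determined by mini broth dilution under NCCLS standards in CAMHB, using revived S. aureus CVCC26003 subcultured 20 h at 35° C. Compounds were two-fold serially diluted in DMSO across 11 wells, with duplicate rows. Bacterial suspension was diluted 1:200 in medium before inoculation.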

Row | SMILES | MIC values, Actinobacillus pleuropneumoniae CVCC262 [1] [ug/mi] | MIC values, Haemophilus parasuis (Haemophilus parasuis) [ug/mi] | MIC values, Streptococcus equines CVCC556 [2] [ug/mi] | MIC values, Pasteurella multocida CVCC399 [3] [ug/mi] | MIC values, Staphylococcus aureus CVCC26003 [4] [ug/mi]
1 | CCCN1C[C@H](C)[C@@H](O)[C@](C)(O)[C@@H](CC)OC(=O)[C@H](C)[C@@H](O[C@H]2C[C@@](C)(OC)[C@](O)(CNc3ccnc(Cl)c3)[C@H](C)O2)[C@H](C)[C@@H](O[C@@H]2O[C@H](C)C[C@H](N(C)C)[C@H]2O)[C@](C)(O)C[C@H]1C [syzx-138] | 2 | 2 | 0.5 | 8 | 2
2 | CCCN1C[C@H](C)[C@@H](O)[C@](C)(O)[C@@H](CC)OC(=O)[C@H](C)[C@@H](O[C@H]2C[C@@](C)(OC)[C@](O)(CNCCCC(=O)O)[C@H](C)O2)[C@H](C)[C@@H](O[C@@H]2O[C@H](C)C[C@H](N(C)C)[C@H]2O)[C@](C)(O)C[C@H]1C [syzx-142] | 0.25 | 0.25 | 0.5 | 0.5 | 0.25
3 | CCCN1C[C@H](C)[C@@H](O)[C@](C)(O)[C@@H](CC)OC(=O)[C@H](C)[C@@H](O[C@H]2C[C@@](C)(OC)[C@](O)(CNCCOCCO)[C@H](C)O2)[C@H](C)[C@@H](O[C@@H]2O[C@H](C)C[C@H](N(C)C)[C@H]2O)[C@](C)(O)C[C@H]1C [syzx-143] | 0.25 | 0.25 | 0.25 | 1 | 0.25
4 | CCCCCNC[C@]1(O)[C@H](C)O[C@@H](O[C@H]2[C@H](C)[C@@H](O[C@@H]3O[C@H](C)C[C@H](N(C)C)[C@H]3O)[C@](C)(O)C[C@@H](C)N(CCC)C[C@H](C)[C@@H](O)[C@](C)(O)[C@@H](CC)OC(=O)[C@@H]2C)C[C@@]1(C)OC [syzx-147] | 0.25 | 0.25 | 0.25 | 0.5 | 0.25
5 | CCCN1CC(C)C(O)C(C)(O)C(CC)OC(=O)C(C)C(OC2CC(C)(OC)C(O)(CNCCOS(=O)(=O)O)C(C)O2)C(C)C(OC2OC(C)CC(N(C)C)C2O)C(C)(O)CC1C (centres unmarked) [syzx-153] | 0.25 | 0.25 | 0.25 | 1 | 0.25
6 | CCCN1C[C@H](C)[C@@H](O)[C@](C)(O)[C@@H](CC)OC(=O)[C@H](C)[C@@H](O[C@H]2C[C@@](C)(OC)[C@](O)(CNCc3ccc(F)c(F)c3)[C@H](C)O2)[C@H](C)[C@@H](O[C@@H]2O[C@H](C)C[C@H](N(C)C)[C@H]2O)[C@](C)(O)C[C@H]1C [syzx-154] | 0.25 | 0.25 | 0.5 | 0.5 | 0.25
7 | CCCN1C[C@H](C)[C@@H](O)[C@](C)(O)[C@@H](CC)OC(=O)[C@H](C)[C@@H](O[C@H]2C[C@@](C)(OC)[C@](O)(CNCc3cc(F)cc(F)c3)[C@H](C)O2)[C@H](C)[C@@H](O[C@@H]2O[C@H](C)C[C@H](N(C)C)[C@H]2O)[C@](C)(O)C[C@H]1C [syzx-155] | 0.25 | 0.25 | 0.25 | 0.5 | 0.25
8 | CCCN1C[C@H](C)[C@@H](O)[C@](C)(O)[C@@H](CC)OC(=O)[C@H](C)[C@@H](O[C@H]2C[C@@](C)(OC)[C@](O)(CNC(C)CCCN(CC)CC)[C@H](C)O2)[C@H](C)[C@@H](O[C@@H]2O[C@H](C)C[C@H](N(C)C)[C@H]2O)[C@](C)(O)C[C@H]1C (some centres unmarked) [syzx-159] | 0.25 | 0.25 | 0.25 | 0.5 | 0.5

Further lines, results first:

Row | MIC values, Actinobacillus pleuropneumoniae CVCC262 [1] [ug/mi] | MIC values, Haemophilus parasuis (Haemophilus parasuis) [ug/mi] | MIC values, Streptococcus equines CVCC556 [2] [ug/mi] | MIC values, Pasteurella multocida CVCC399 [3] [ug/mi] | MIC values, Staphylococcus aureus CVCC26003 [4] [ug/mi] | SMILES
9 | 0.25 | 0.25 | 0.25 | 1 | 0.25 | C#CCNC[C@]1(O)[C@H](C)O[C@@H](O[C@H]2[C@H](C)[C@@H](O[C@@H]3O[C@H](C)C[C@H](N(C)C)[C@H]3O)[C@](C)(O)C[C@@H](C)N(CCC)C[C@H](C)[C@@H](O)[C@](C)(O)[C@@H](CC)OC(=O)[C@@H]2C)C[C@@]1(C)OC [syzx-140]
10 | 0.25 | 0.25 | 0.25 | 1 | 0.25 | CCCN1C[C@H](C)[C@@H](O)[C@](C)(O)[C@@H](CC)OC(=O)[C@H](C)[C@@H](O[C@H]2C[C@@](C)(OC)[C@](O)(CNC(CC)C(=O)O)[C@H](C)O2)[C@H](C)[C@@H](O[C@@H]2O[C@H](C)C[C@H](N(C)C)[C@H]2O)[C@](C)(O)C[C@H]1C (some centres unmarked) [syzx-141]
11 | 64 | 0.5 | 0.5 | 2 | 1 | CCCN1CC(C)C(O)C(C)(O)C(CC)OC(=O)C(C)C(OC2CC(C)(OC)C(O)(CNC(CO)CO)C(C)O2)C(C)C(OC2OC(C)CC(N(C)C)C2O)C(C)(O)CC1C (centres unmarked) [syzx-145]
12 | 0.25 | 0.25 | 0.25 | 0.5 | 0.25 | CCCN1C[C@H](C)[C@@H](O)[C@](C)(O)[C@@H](CC)OC(=O)[C@H](C)[C@@H](O[C@H]2C[C@@](C)(OC)[C@](O)(CNCCCO)[C@H](C)O2)[C@H](C)[C@@H](O[C@@H]2O[C@H](C)C[C@H](N(C)C)[C@H]2O)[C@](C)(O)C[C@H]1C [syzx-146]
13 | 0.5 | 0.5 | 0.25 | 1 | 0.25 | CCCN1C[C@H](C)[C@@H](O)[C@](C)(O)[C@@H](CC)OC(=O)[C@H](C)[C@@H](O[C@H]2C[C@@](C)(OC)[C@](O)(CNN3CCOCC3)[C@H](C)O2)[C@H](C)[C@@H](O[C@@H]2O[C@H](C)C[C@H](N(C)C)[C@H]2O)[C@](C)(O)C[C@H]1C [syzx-148]
14 | 1 | 0.5 | 0.25 | 2 | 0.5 | CCCN1C[C@H](C)[C@@H](O)[C@](C)(O)[C@@H](CC)OC(=O)[C@H](C)[C@@H](O[C@H]2C[C@@](C)(OC)[C@](O)(CNC(C)CC(=O)O)[C@H](C)O2)[C@H](C)[C@@H](O[C@@H]2O[C@H](C)C[C@H](N(C)C)[C@H]2O)[C@](C)(O)C[C@H]1C (some centres unmarked) [syzx-150]
15 | 0.25 | 0.25 | 0.25 | 0.5 | 0.25 | CCCN1C[C@H](C)[C@@H](O)[C@](C)(O)[C@@H](CC)OC(=O)[C@H](C)[C@@H](O[C@H]2C[C@@](C)(OC)[C@](O)(CNC(CC)CO)[C@H](C)O2)[C@H](C)[C@@H](O[C@@H]2O[C@H](C)C[C@H](N(C)C)[C@H]2O)[C@](C)(O)C[C@H]1C (some centres unmarked) [syzx-151]
16 | 4 | 4 | 0.25 | 2 | 2 | CCCN1C[C@H](C)[C@@H](O)[C@](C)(O)[C@@H](CC)OC(=O)[C@H](C)[C@@H](O[C@H]2C[C@@](C)(OC)[C@](O)(CNCCOC)[C@H](C)O2)[C@H](C)[C@@H](O[C@@H]2O[C@H](C)C[C@H](N(C)C)[C@H]2O)[C@](C)(O)C[C@H]1C [syzx-158]
